The values below are quoted from earlier work in patent US20040180832A1, “Sustained peptide-release formulation” (Peptech Limited, priority 1996, published 2004).

The data set concerns advanced prostatic cancer. As to conditions: monthly subcutaneous injections.

The structures appear in SMILES notation.

Take `CC(C)C[C@H](NC(=O)[C@@H](COC(C)(C)C)NC(=O)[C@H](Cc1ccc(O)cc1)NC(=O)[C@H](CO)NC(=O)[C@H](Cc1c[nH]c2ccccc12)NC(=O)[C@H](Cc1cnc[nH]1)NC(=O)[C@@H]1CCC(=O)N1)C(=O)N[C@@H](CCCNC(=N)N)C(=O)N1CCC[C@H]1C(=O)NNC(N)=O` [goserelin, 3-[5-oxo-L-prolyl-L-tryptophyl-L-seryl-L-tyrosyl-(3-O-tert-butyl)-D-seryl-L-leucyl-L-arginyl-L-prolyl] cabazamide acetate.]: the “efficacy in advanced prostatic cancer compared with orchiectomy” value is “as effective as orchiectomy” and the tolerability result is “well tolerated”.
